Reference: patent US10167284B2, “Spirocyclic compounds as agonists of the muscarinic M1 receptor and/or M4 receptor” (HEPTARES THERAPEUTICS LIMITED, priority 2015, dated 2019)

Columns and labels:
[1] = target: T1, human muscarinic M1 receptor (Homo sapiens, UniProt P11229); assay: Alphascreen Surefire phospho-ERK1/2 functional assay, M1; type: cell-based; conditions: for EC50 / M1 % Emax cf. ACh: CHO cells stably expressing human M1; for EC50: phospho-ERK1/2, read-out: pEC50 M1 (converted); for Emax: CHO, read-out: M1 % Emax cf. ACh, CHO cells stably expressing human M1; for Emax / M1 % Emax cf. ACh: Emax relative to ACh
T1 construct: expressed in transfected cells
T1 sequence (P11229 1-460): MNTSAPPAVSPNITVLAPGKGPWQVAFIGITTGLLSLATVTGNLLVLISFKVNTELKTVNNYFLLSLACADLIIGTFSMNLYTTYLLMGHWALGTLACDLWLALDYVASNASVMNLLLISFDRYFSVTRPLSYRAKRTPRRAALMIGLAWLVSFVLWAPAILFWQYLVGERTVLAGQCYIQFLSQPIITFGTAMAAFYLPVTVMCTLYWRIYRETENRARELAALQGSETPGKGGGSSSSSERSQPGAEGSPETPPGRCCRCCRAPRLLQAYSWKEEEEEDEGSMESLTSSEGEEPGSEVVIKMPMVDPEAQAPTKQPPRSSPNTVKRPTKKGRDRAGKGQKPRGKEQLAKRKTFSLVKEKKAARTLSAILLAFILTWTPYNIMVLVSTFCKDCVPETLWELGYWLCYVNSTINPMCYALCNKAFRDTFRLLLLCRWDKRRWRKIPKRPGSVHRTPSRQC
Protocol: (§1) CHO cells stably expressing the human muscarinic M1, M2, M3 or M4 receptor were plated (25K/well) onto 96-well tissue culture plates in MEM-alpha+10% dialysed FBS. Once adhered, cells were serum-starved overnight. Agonist stimulation was performed by the addition of 5 μL agonist to the cells for 5 min (37° C.). Media was removed and 50 μL of lysis buffer added. After 15 min, a 4 μL sample was transferred to 384-well plate and 7 μL of detection mixture added. Plates were incubated for 2 h with gentle agitation in the dark and then read on a PHERAstar plate reader.
(§2) pEC50 and Emax figures were calculated from the resulting data for each receptor subtype.

[2] = target: human muscarinic M3 receptor (Homo sapiens, UniProt P20309); assay: Alphascreen Surefire phospho-ERK1/2 functional assay, M3; conditions: for Emax: CHO, read-out: M3 % Emax cf. ACh, CHO cells stably expressing human M3; for Emax / M3 % Emax cf. ACh: Emax relative to ACh
Chain of human muscarinic M3 receptor (P20309 whole entry): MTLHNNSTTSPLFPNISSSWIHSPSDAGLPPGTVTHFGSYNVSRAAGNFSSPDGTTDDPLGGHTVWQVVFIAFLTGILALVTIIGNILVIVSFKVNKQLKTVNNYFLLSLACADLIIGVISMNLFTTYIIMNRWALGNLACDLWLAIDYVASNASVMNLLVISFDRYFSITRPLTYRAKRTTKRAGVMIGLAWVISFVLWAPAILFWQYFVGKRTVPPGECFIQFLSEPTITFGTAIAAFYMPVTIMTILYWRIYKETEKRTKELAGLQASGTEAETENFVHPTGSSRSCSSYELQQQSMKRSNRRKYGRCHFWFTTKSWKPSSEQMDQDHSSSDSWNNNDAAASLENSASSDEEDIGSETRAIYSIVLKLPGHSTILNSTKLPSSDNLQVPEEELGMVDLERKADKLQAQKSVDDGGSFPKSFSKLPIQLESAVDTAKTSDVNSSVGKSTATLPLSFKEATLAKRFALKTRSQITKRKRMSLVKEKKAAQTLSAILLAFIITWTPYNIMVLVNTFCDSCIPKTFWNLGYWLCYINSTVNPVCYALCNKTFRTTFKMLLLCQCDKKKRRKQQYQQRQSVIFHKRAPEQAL
Protocol: as §1, §2

[3] = target: T2, human muscarinic M4 receptor (Homo sapiens, UniProt P08173); assay: Alphascreen Surefire phospho-ERK1/2 functional assay, M4; type: cell-based; conditions: for EC50: read-out: pEC50 M4 (converted); for Emax: CHO, read-out: M4 % Emax cf. ACh, CHO cells stably expressing human M4; for Emax / M4 % Emax cf. ACh: Emax relative to ACh
T2 construct: expressed in transfected cells
T2 sequence (P08173 1-479): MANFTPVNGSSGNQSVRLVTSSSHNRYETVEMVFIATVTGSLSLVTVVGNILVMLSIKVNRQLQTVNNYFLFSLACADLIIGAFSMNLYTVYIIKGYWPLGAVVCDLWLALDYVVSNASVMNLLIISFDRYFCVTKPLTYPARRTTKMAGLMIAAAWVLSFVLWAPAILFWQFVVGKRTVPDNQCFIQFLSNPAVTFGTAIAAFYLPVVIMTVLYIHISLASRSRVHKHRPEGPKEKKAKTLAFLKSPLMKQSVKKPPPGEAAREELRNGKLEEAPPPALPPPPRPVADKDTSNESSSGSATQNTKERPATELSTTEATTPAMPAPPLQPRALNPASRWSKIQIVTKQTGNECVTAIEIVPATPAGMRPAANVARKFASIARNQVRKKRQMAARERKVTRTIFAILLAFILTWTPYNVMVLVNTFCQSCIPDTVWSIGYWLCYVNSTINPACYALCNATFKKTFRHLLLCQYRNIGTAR
Protocol: as §1, §2

[4] = target: T3, human muscarinic M2 receptor (Homo sapiens, UniProt P08172); assay: Alphascreen Surefire phospho-ERK1/2 functional assay, M2; conditions: for Emax: CHO, read-out: M2 % Emax cf. ACh, CHO cells stably expressing human M2; for Emax / M2 % Emax cf. ACh: Emax relative to ACh; for EC50: pEC50 M2, CHO cells stably expressing human M2
T3 sequence (P08172 1-466): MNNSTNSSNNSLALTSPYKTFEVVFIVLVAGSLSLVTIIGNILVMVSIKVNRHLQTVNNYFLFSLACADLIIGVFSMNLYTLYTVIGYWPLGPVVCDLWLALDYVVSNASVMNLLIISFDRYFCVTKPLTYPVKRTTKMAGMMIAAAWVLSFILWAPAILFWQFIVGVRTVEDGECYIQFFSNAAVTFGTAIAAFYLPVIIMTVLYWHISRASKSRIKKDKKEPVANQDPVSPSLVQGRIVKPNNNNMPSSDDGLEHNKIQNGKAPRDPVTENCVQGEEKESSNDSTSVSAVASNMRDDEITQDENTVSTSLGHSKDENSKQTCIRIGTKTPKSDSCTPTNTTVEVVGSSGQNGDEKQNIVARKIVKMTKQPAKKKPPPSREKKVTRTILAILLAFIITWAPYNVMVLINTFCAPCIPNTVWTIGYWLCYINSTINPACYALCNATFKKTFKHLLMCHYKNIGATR
Protocol: as §1, §2

[5] = CHO cells stably expressing human M4, phospho-ERK1/2
[6] = CHO cells stably expressing human M3
[7] = CHO cells stably expressing human M4
[8] = CHO cells stably expressing human M2

Row | Structure (SMILES) | EC50 [1] [nM] | Emax [1] [%] | EC50 [2] [nM] | Emax [2] [%] | EC50 [3, 5] [nM] | Emax [3] [%] | Emax [4] [%] | EC50 ([4]; phospho-ERK1/2) [nM] | M1 % Emax cf. ACh [1] | M3 % Emax cf. ACh [2, 6] | pEC50 M3 ([2]; CHO cells stably expressing human M3, phospho-ERK1/2) | M4 % Emax cf. ACh [3, 7] | pEC50 M4 [3, 5] | M2 % Emax cf. ACh [4, 8] | pEC50 M2 ([4]; CHO cells stably expressing human M2, phospho-ERK1/2)
1 | CCOC(=O)N1CC2(CC(N3CCC4(CC3)OC(=O)NC4CC)C2)C1 (single isomer, unassigned) [2-1 Isomer 1] | 251 |  |  |  |  |  |  |  | (107) % | (9) % | <4.7 | (117) % | 6.9 | (15) % | <4.7
2 | CCOC(=O)N1CCC2(CC(N3CCC4(CC3)CC(=O)NC4C)C2)C1 (single isomer, unassigned) [3-3 Isomer 2] | 158 | 97 | > 20000 | 7 | 200 | 81 | 2 | > 20000 |  |  |  |  |  |  | 
3 | CCOC(=O)N1CCC2(CC(N3CCC4(CC3)OC(=O)NC4C)C2)C1 (single isomer, unassigned) [4-11 Isomer 2] | 158 | 114 | > 20000 | 7 | 79.4 | 102 | 7 | > 20000 |  |  |  |  |  |  | 
4 | CCCN1C(=O)CC2(CCN(C3CC4(CCN(C(=O)OCC)C4)C3)CC2)N1CC (single isomer, unassigned) [6-9 Isomer 2] | > 20000 | 17 | > 20000 | 50 | 39.8 | 84 | 1 | > 20000 |  |  |  |  |  |  | 
5 | COC(=O)N1CCC2(CC(N3CCC4(CC3)CNC(=O)O4)C2)C1 (single isomer, unassigned) [4-1 Isomer 2] | 126 | 104 | > 20000 | 11 | 126 | 86 | 18 | > 20000 |  |  |  |  |  |  | 
6 | CCN1C(=O)OC2(CCN(C3CC4(CCN(C(=O)OC)C4)C3)CC2)C1(C)C (single isomer, unassigned) [4-34 Isomer 2] | 2000 | 34 | > 20000 | 1 | 100 | 83 | 2 | > 20000 |  |  |  |  |  |  | 
7 | CCCN1C(=O)OC2(CCN(C3CC4(CCN(C(=O)OCC)C4)C3)CC2)C1(C)C (single isomer, unassigned) [4-37 Isomer 1] | 398 |  | > 20000 | 7 | 5.01 |  | 3 | > 20000 | (84) % |  |  | (138) % |  |  | 
8 | CCOC(=O)N1CC2(CCC(N3CCC4(CC3)CNC(=O)C4)C2)C1 (racemic) [7-1 racemic] | 5.01 | 26 | > 20000 | 4 | > 20000 | 14 | 0 | > 20000 |  |  |  |  |  |  | 
9 | CCCN1NC(=O)CC12CCN(C1CC3(CCN(C(=O)OCC)C3)C1)CC2 (single isomer, unassigned) [6-4 Isomer 2] | 31.6 | 89 | > 20000 | 26 | 3.98 | 100 | 20 | > 20000 |  |  |  |  |  |  | 
10 | CCOC(=O)N1CCC2(CC(N3CCC4(CC3)OC(=O)N(CC(C)C)C4(C)C)C2)C1 (single isomer, unassigned) [4-38 Isomer 1] | 1000 |  | > 20000 |  | 63.1 | 97 |  | > 20000 | (72) % | (3) % |  |  |  | (7) % | 

Second part, the compound after the results:

Row | EC50 [1] [nM] | Emax [1] [%] | EC50 [2] [nM] | Emax [2] [%] | EC50 [3, 5] [nM] | Emax [3] [%] | Emax [4] [%] | EC50 ([4]; phospho-ERK1/2) [nM] | M1 % Emax cf. ACh [1] | M3 % Emax cf. ACh [2, 6] | pEC50 M3 ([2]; CHO cells stably expressing human M3, phospho-ERK1/2) | M4 % Emax cf. ACh [3, 7] | pEC50 M4 [3, 5] | M2 % Emax cf. ACh [4, 8] | pEC50 M2 ([4]; CHO cells stably expressing human M2, phospho-ERK1/2) | Structure (SMILES)
11 | 126 | 92 | > 20000 | 5 | 316 | 50 | 143 | > 20000 |  |  |  |  |  |  |  | CCOC(=O)N1CCC2(CC(N3CCC4(CC3)CNC(=O)N4)C2)C1 (single isomer, unassigned) [5-2 Isomer 2]
12 | > 20000 | 8 | > 20000 | 42 | 100 | 86 | 5 | > 20000 |  |  |  |  |  |  |  | CCOC(=O)N1CCC2(CC(N3CCC4(CC3)OC(=O)N(CCOC)C4(C)C)C2)C1 (single isomer, unassigned) [4-41 Isomer 2]
13 | 794 | 56 | > 20000 | 8 | 63.1 | 88 | 87 | > 20000 |  |  |  |  |  |  |  | CCOC(=O)N1CCC2(CC(N3CCC4(CC3)OC(=O)N(CC3CC3)C4(C)C)C2)C1 (single isomer, unassigned) [4-39 Isomer 2]
14 | 200 | 63 | > 20000 | 1 | 7.94 | 91 | 4 | > 20000 |  |  |  |  |  |  |  | CCOC(=O)N1CC2(CCC(N3CCC4(CC3)OC(=O)N(CC)C4(C)C)C2)C1 (racemic) [8-4 racemic]
15 | 12.6 | 110 | > 20000 | 53 | 79.4 | 98 | 33 | > 20000 |  |  |  |  |  |  |  | CCOC(=O)N1CCC2(CC(N3CCC4(CC3)CC(=O)NC4Cc3ccccc3)C2)C1 (single isomer, unassigned) [3-8 Isomer 2]
16 | 12600 | 35 | > 20000 | 1 | 79.4 | 106 | 52 | > 20000 |  |  |  |  |  |  |  | CCCN1C(=O)OC2(CCN(C3CC4(CCN(C(=O)OC)C4)C3)CC2)C1(C)C (single isomer, unassigned) [4-36 Isomer 2]
17 | 158 | 106 | > 20000 |  | 126 | 108 | 15 | > 20000 |  | (4) % |  |  |  |  |  | CCOC(=O)N1CC2(CC(N3CCC4(CC3)OC(=O)NC4CC)C2)C1 (single isomer, unassigned) [2-1 Isomer 2]
18 | 15.8 | 87 | > 20000 | 2 | 20 | 50 | 3 | > 20000 |  |  |  |  |  |  |  | CCOC(=O)N1CCC2(CC(N3CCC4(CC3)CNC(=O)C4)C2)C1 (single isomer, unassigned) [3-2 Isomer 2]
19 | 1000 | 86 | > 20000 | 7 | 63.1 | 106 | 7 | > 20000 |  |  |  |  |  |  |  | CCOC(=O)N1CCC2(CC(N3CCC4(CC3)OC(=O)N(C3CC3)C4CC)C2)C1 (mixture of isomers) [4-47 mixture of diastereomers]
20 | 63.1 | 109 | > 20000 | 10 | 20 | 114 | 0 | > 20000 |  |  |  |  |  |  |  | CCOC(=O)N1CCC2(CC(N3CCC4(CC3)CC(=O)NN4CC)C2)C1 (single isomer, unassigned) [6-2 Isomer 2]
